Laboratory results: PubChem BioAssay (NCI)
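Growth conditions: 96-well plates. Treatment: test compound, 48 hours, 5 concentrations. Analysis: linear interpolation between bracketing concentrations; unreached endpoints set to highest concentration. TGI is the concentration that stops growth completely.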

What was measured:
Experiment in all cases: NCI tumour cell line growth inhibition, 48 h
786-0 renal = system: 786-0 renal
A498 renal = system: A498 renal
A549 NSCLC = system: A549 NSCLC
ACHN renal = system: ACHN renal
CAKI-1 renal = system: CAKI-1 renal
CCRF-CEM leukemia = system: CCRF-CEM leukemia
COLO 205 colon = system: COLO 205 colon
DLD-1 colon = system: DLD-1 colon
DMS 273 small cell lung = system: DMS 273 small cell lung
HCC-2998 colon = system: HCC-2998 colon
HCT-116 colon = system: HCT-116 colon
HCT-15 colon = system: HCT-15 colon
HL-60(TB) leukemia = system: HL-60(TB) leukemia
HOP-18 NSCLC = system: HOP-18 NSCLC
HOP-62 NSCLC = system: HOP-62 NSCLC
HOP-92 NSCLC = system: HOP-92 NSCLC
HT29 colon = system: HT29 colon
IGROV1 ovarian = system: IGROV1 ovarian
K-562 leukemia = system: K-562 leukemia
KM12 colon = system: KM12 colon
KM20L2 colon = system: KM20L2 colon
LOX IMVI melanoma = system: LOX IMVI melanoma
LXFL 529 NSCLC = system: LXFL 529 NSCLC
M14 melanoma = system: M14 melanoma
M19-MEL melanoma = system: M19-MEL melanoma
MALME-3M melanoma = system: MALME-3M melanoma
MOLT-4 leukemia = system: MOLT-4 leukemia
NCI-H226 lung = system: NCI-H226 lung
NCI-H23 lung = system: NCI-H23 lung
NCI-H460 lung = system: NCI-H460 lung
NCI-H522 lung = system: NCI-H522 lung
OVCAR-3 ovarian = system: OVCAR-3 ovarian
OVCAR-4 ovarian = system: OVCAR-4 ovarian
OVCAR-5 ovarian = system: OVCAR-5 ovarian
OVCAR-8 ovarian = system: OVCAR-8 ovarian
RPMI-8226 leukemia = system: RPMI-8226 leukemia
RXF 393 renal = system: RXF 393 renal
RXF-631 renal = system: RXF-631 renal
SF-268 CNS = system: SF-268 CNS
SF-295 CNS = system: SF-295 CNS
SF-539 CNS = system: SF-539 CNS
SK-MEL-28 melanoma = system: SK-MEL-28 melanoma
SK-MEL-5 melanoma = system: SK-MEL-5 melanoma
SN12C renal = system: SN12C renal
SNB-19 CNS = system: SNB-19 CNS
SNB-78 CNS = system: SNB-78 CNS
SR leukemia = system: SR leukemia
SW-620 colon = system: SW-620 colon
TK-10 renal = system: TK-10 renal
U251 CNS = system: U251 CNS
UACC-257 melanoma = system: UACC-257 melanoma
UACC-62 melanoma = system: UACC-62 melanoma
XF 498 CNS = system: XF 498 CNS
DMS 114 small cell lung = system: DMS 114 small cell lung
EKVX NSCLC = system: EKVX NSCLC
MCF7 breast = system: MCF7 breast
NCI/ADR-RES ovarian = system: NCI/ADR-RES ovarian
P388 leukemia = system: P388 leukemia
P388/ADR leukemia = system: P388/ADR leukemia
SK-MEL-2 melanoma = system: SK-MEL-2 melanoma
SK-OV-3 ovarian = system: SK-OV-3 ovarian
SN12K1 renal = system: SN12K1 renal
SNB-75 CNS = system: SNB-75 CNS
UO-31 renal = system: UO-31 renal

SMILES: CC(=O)OCC1OC(OCc2ccccc2)C(Br)C(OC(C)=O)C1OC(C)=O (stereo not drawn)
- TGI (786-0 renal): > 100 µM
- TGI (A498 renal): > 100 µM
- TGI (A549 NSCLC): > 100 µM
- TGI (ACHN renal): > 100 µM
- TGI (CAKI-1 renal): > 100 µM
- TGI (CCRF-CEM leukemia): > 100 µM
- TGI (COLO 205 colon): > 100 µM
- TGI (DLD-1 colon): > 100 µM
- TGI (DMS 273 small cell lung): > 100 µM
- TGI (HCC-2998 colon): > 100 µM
- TGI (HCT-116 colon): > 100 µM
- TGI (HCT-15 colon): > 100 µM
- TGI (HL-60(TB) leukemia): > 100 µM
- TGI (HOP-18 NSCLC): > 100 µM
- TGI (HOP-62 NSCLC): > 100 µM
- TGI (HOP-92 NSCLC): > 100 µM
- TGI (HT29 colon): > 100 µM
- TGI (IGROV1 ovarian): > 100 µM
- TGI (K-562 leukemia): > 100 µM
- TGI (KM12 colon): > 100 µM
- TGI (KM20L2 colon): > 100 µM
- TGI (LOX IMVI melanoma): > 100 µM
- TGI (LXFL 529 NSCLC): > 100 µM
- TGI (M14 melanoma): > 100 µM
- TGI (M19-MEL melanoma): > 100 µM
- TGI (MALME-3M melanoma): > 100 µM
- TGI (MOLT-4 leukemia): > 100 µM
- TGI (NCI-H226 lung): > 100 µM
- TGI (NCI-H23 lung): > 100 µM
- TGI (NCI-H460 lung): > 100 µM
- TGI (NCI-H522 lung): > 100 µM
- TGI (OVCAR-3 ovarian): > 100 µM
- TGI (OVCAR-4 ovarian): > 100 µM
- TGI (OVCAR-5 ovarian): > 100 µM
- TGI (OVCAR-8 ovarian): > 100 µM
- TGI (RPMI-8226 leukemia): > 100 µM
- TGI (RXF 393 renal): > 100 µM
- TGI (RXF-631 renal): > 100 µM
- TGI (SF-268 CNS): > 100 µM
- TGI (SF-295 CNS): > 100 µM
- TGI (SF-539 CNS): > 100 µM
- TGI (SK-MEL-28 melanoma): > 100 µM
- TGI (SK-MEL-5 melanoma): > 100 µM
- TGI (SN12C renal): > 100 µM
- TGI (SNB-19 CNS): > 100 µM
- TGI (SNB-78 CNS): > 100 µM
- TGI (SR leukemia): > 100 µM
- TGI (SW-620 colon): > 100 µM
- TGI (TK-10 renal): > 100 µM
- TGI (U251 CNS): > 100 µM
- TGI (UACC-257 melanoma): > 100 µM
- TGI (UACC-62 melanoma): > 100 µM
- TGI (XF 498 CNS): > 100 µM

SMILES: COc1cc(C2c3cc4c(cc3[C@@H](Nc3ccc(Oc5ccccc5)cc3)C3COC(=O)[C@H]23)OCO4)cc(OC)c1O (stereo partly drawn)
- TGI (A498 renal): 9.6 µM
- TGI (A549 NSCLC): > 39.5 µM
- TGI (CAKI-1 renal): 6.76 µM
- TGI (CCRF-CEM leukemia): 4.38 µM
- TGI (COLO 205 colon): 13 µM
- TGI (DLD-1 colon): > 100 µM
- TGI (DMS 114 small cell lung): > 22.7 µM
- TGI (EKVX NSCLC): > 100 µM
- TGI (HCC-2998 colon): 13.8 µM
- TGI (HCT-116 colon): > 100 µM
- TGI (HCT-15 colon): 19.7 µM
- TGI (HL-60(TB) leukemia): 2.23 µM
- TGI (HOP-18 NSCLC): > 100 µM
- TGI (HOP-62 NSCLC): 4.15 µM
- TGI (HT29 colon): > 100 µM
- TGI (IGROV1 ovarian): > 100 µM
- TGI (K-562 leukemia): > 32.4 µM
- TGI (KM12 colon): > 100 µM
- TGI (KM20L2 colon): > 24.3 µM
- TGI (LOX IMVI melanoma): > 100 µM
- TGI (M19-MEL melanoma): > 100 µM
- TGI (MALME-3M melanoma): > 100 µM
- TGI (MCF7 breast): > 37.1 µM
- TGI (MOLT-4 leukemia): 2 µM
- TGI (NCI-H226 lung): 7.9 µM
- TGI (NCI-H23 lung): 6.68 µM
- TGI (NCI-H460 lung): 12.2 µM
- TGI (NCI-H522 lung): > 78.9 µM
- TGI (NCI/ADR-RES ovarian): > 100 µM
- TGI (OVCAR-3 ovarian): > 100 µM
- TGI (OVCAR-4 ovarian): > 100 µM
- TGI (OVCAR-5 ovarian): > 100 µM
- TGI (OVCAR-8 ovarian): > 100 µM
- TGI (P388 leukemia): 1.88 µM
- TGI (P388/ADR leukemia): 3.49 µM
- TGI (RPMI-8226 leukemia): 5.86 µM
- TGI (RXF 393 renal): > 100 µM
- TGI (SF-268 CNS): > 100 µM
- TGI (SF-295 CNS): > 100 µM
- TGI (SF-539 CNS): > 28.2 µM
- TGI (SK-MEL-2 melanoma): > 100 µM
- TGI (SK-MEL-28 melanoma): > 100 µM
- TGI (SK-MEL-5 melanoma): 5.99 µM
- TGI (SK-OV-3 ovarian): > 52 µM
- TGI (SN12C renal): > 25.5 µM
- TGI (SN12K1 renal): > 100 µM
- TGI (SNB-19 CNS): > 100 µM
- TGI (SNB-75 CNS): 96.9 µM
- TGI (SNB-78 CNS): > 100 µM
- TGI (SW-620 colon): > 100 µM
- TGI (U251 CNS): > 27.9 µM
- TGI (UACC-257 melanoma): 20.1 µM
- TGI (UACC-62 melanoma): 22.9 µM
- TGI (UO-31 renal): > 100 µM
- TGI (XF 498 CNS): > 59.8 µM
